Legend:
HCV protease = conditions: cited from earlier work
HCV protease D168E = HCV protease D168E (Hepatitis C virus genotype 1a, UniProt P27958, D1194E); experiment: biochemical
wild-type HCV protease = wild-type HCV protease (Hepatitis C virus genotype 1a, UniProt P27958); assay type: biochemical
HCV protease D168Y = HCV protease D168Y (Hepatitis C virus genotype 1a, UniProt P27958, D1194Y); experiment: biochemical

## CC(C)(C)OC(=O)N[C@H]1CCCCC/C=C\[C@@H]2C[C@@]2(C(=O)NS(=O)(=O)C2CC2)NC(=O)[C@@H]2C[C@@H](OC(=O)N3Cc4cccc(F)c4C3)CN2C1=O [danoprevir]
HCV protease
  IC50: ~0.3 nM
HCV protease D168E
  IC50: 38.9 ± 2.4 nM
wild-type HCV protease
  IC50: 1.3 ± 0.1 nM
HCV protease D168Y
  IC50: 34.4 ± 2.8 nM

## C=C[C@@H]1C[C@]1(NC(=O)[C@@H]1C[C@@H](Oc2ncc(OC)c3ccc(Cl)cc23)CN1C(=O)[C@@H](NC(=O)OC(C)(C)C)C(C)(C)C)C(=O)NS(=O)(=O)C1CC1 [asunaprevir]
HCV protease
  IC50: ~1 nM

From PMC4215169 (Nature communications, 2014)
